In patent US20190209472A1, “FORMULATIONS FOR DERMAL DELIVERY OF POLYMER CONJUGATES OF INDOLOCARBAZOLE COMPOUNDS WITH REDUCED EXPOSURE” (Sienna Biopharmaceuticals, Inc., priority 2017, published 2019):

Columns and labels:
[1] = Phase 1b maximal use study: plasma pharmacokinetics of SNA-120; assay type: in vivo, human; conditions: any post-baseline timepoint; no detectable levels
Method: This is a multicenter, open-label, Phase 1b study designed to evaluate the PK with maximal use of 0.5% w/w SNA-120 ointment (see Table 1), as measured by circulating plasma levels of SNA-120 in men and women aged ≥18 years who have at least moderate (e.g., moderate to severe) pruritus associated with at least moderate (e.g., moderate to severe) psoriasis vulgaris (PV) covering at least 20% body surface area (BSA). SNA-120 was evaluated as a topical, non-steroidal ointment to treat itch (pruritus) associated with psoriasis. SNA-120 was designed to achieve high local drug concentration in the target tissue while minimizing systemic exposure for patients. SNA-120 directly targets the peripheral itch pathway in the psoriatic plaque.
Approximately 30 eligible subjects will receive 0.5% w/w SNA-120 ointment (2 mg/cm^2) proportional to approximately 35 mg active drug at each application for a subject with at least 20% BSA affected, administered twice daily over 4 weeks to the indicated areas in the Treatment Area. […]
Pharmacokinetics—Blood: Serial blood draws for PK analysis will be obtained approximately the same time of day for Study Days 1 and 29. […] On Days 1 and 29, blood draws will be collected after each nominal ECG extraction time point; the actual times of collection will be recorded in the eCRF. […]

[2] = Validation of HPLC methods (SNA-120 assay and related substances, benzyl alcohol); conditions: benzyl alcohol in ointment sample solutions stored at ambient conditions
Text: An HPLC method was developed for the detection of assay and related substances of SNA-120 drug product and placebo. The following method validation parameters were challenged: specificity; linearity; accuracy; precision (system and repeatability); range; stability of test solutions; limit of detection and quantitation; system suitability.
An HPLC method was developed for the detection of Benzyl Alcohol in SNA-120 drug product and placebo. The following method validation parameters were challenged: specificity; linearity; accuracy; precision (system and repeatability); range; stability of test solutions; system suitability.

Row | Compound | Plasma levels of K252b [1] [ng/mL] | Stability of test solutions: samples stable for up to [2]
1 | C[C@]12O[C@H](C[C@]1(O)C(=O)O)n1c3ccccc3c3c4c(c5c6ccccc6n2c5c31)CNC4=O [Lot K252b] | < 0.250 | –
2 | OCc1ccccc1 [benzyl alcohol] | – | ambient conditions. Samples are stable for up to 2 days
